Assay results as given in the NIST ThermoML archive (doi:10.1021/je0604232).

Assay: molar heat capacity at constant pressure; xn = mol fraction of the nth substance listed
Details: 101 kPa, Liquid

CC(O)CN (stereo not given) [1-amino-2-propanol] + O
molar heat capacity at constant pressure [J/K/mol]
Details | x1 = 0.1 | x1 = 0.2007 | x1 = 0.2996 | x1 = 0.4001 | x1 = 0.4983 | x1 = 0.6013 | x1 = 0.6999 | x1 = 0.7996 | x1 = 0.8959 | x1 = 1
303.15 K | 95 | 110 | 121 | 133 | 145 | 158 | 170 | 183 | 196 | 209
308.15 K | 97 | 113 | 124 | 137 | 149 | 162 | 174 | 187 | 200 | 213
313.15 K | 98 | 114 | 126 | 139 | 151 | 164 | 176 | 188 | 201 | 214
318.15 K | 99 | 116 | 128 | 141 | 154 | 166 | 177 | 190 | 202 | 215
323.15 K | 100 | 117 | 130 | 144 | 156 | 168 | 180 | 192 | 204 | 217
328.15 K | 102 | 119 | 133 | 147 | 159 | 171 | 182 | 194 | 206 | 218
333.15 K | 104 | 121 | 136 | 150 | 162 | 174 | 185 | 197 | 209 | 221
338.15 K | 106 | 125 | 140 | 154 | 166 | 178 | 188 | 200 | 211 | 223
343.15 K | 109 | 128 | 144 | 158 | 170 | 181 | 192 | 203 | 214 | 225
348.15 K | 112 | 133 | 149 | 163 | 175 | 185 | 195 | 206 | 216 | 228
353.15 K | 117 | 138 | 155 | 169 | 180 | 190 | 199 | 209 | 219 | 230

CN(C)CCO [2-(N,N-dimethylamino)ethanol] + O
molar heat capacity at constant pressure [J/K/mol]
Details | x1 = 0.0997 | x1 = 0.1962 | x1 = 0.3003 | x1 = 0.3984 | x1 = 0.4983 | x1 = 0.6008 | x1 = 0.698 | x1 = 0.7981 | x1 = 0.8938 | x1 = 1
303.15 K | 103 | 118 | 132 | 144 | 156 | 168 | 179 | 191 | 202 | 213
308.15 K | 104 | 119 | 134 | 146 | 158 | 170 | 181 | 193 | 205 | 215
313.15 K | 105 | 121 | 136 | 149 | 161 | 173 | 185 | 196 | 208 | 217
318.15 K | 105 | 123 | 139 | 152 | 164 | 177 | 188 | 199 | 210 | 219
323.15 K | 107 | 125 | 141 | 155 | 168 | 180 | 191 | 203 | 213 | 221
328.15 K | 108 | 127 | 144 | 158 | 171 | 184 | 195 | 206 | 215 | 222
333.15 K | 109 | 129 | 147 | 161 | 175 | 187 | 199 | 209 | 217 | 223
338.15 K | 112 | 132 | 150 | 165 | 179 | 192 | 203 | 213 | 220 | 223
343.15 K | 114 | 136 | 155 | 170 | 184 | 196 | 208 | 218 | 223 | 223
348.15 K | 118 | 140 | 160 | 176 | 190 | 203 | 214 | 223 | 225 | 224
353.15 K | 123 | 146 | 166 | 184 | 198 | 210 | 221 | 229 | 228 | 226
